Source: patent publication US11739074B2, “Ras inhibitors” (Revolution Medicines, Inc., priority 2019, dated 2023)

Columns and labels:
AsPC-1 (K-Ras G12D) [1] = assay: CellTiter-Glo cell viability assay, AsPC-1; format: cell-based; conditions: Homo sapiens, ASPC1, 120 h, AsPC-1, K-Ras G12D, 5-day treatment; read-out: AsPC-1 Cell Viability IC50
Summary of the method: (§1)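 Direct compound addition to plated cells; 5-day exposure; ~30 min RT equilibration; CellTiter-Glo luminescence. Normalization: (sample/avg DMSO)*100; 4-parameter logistic curve fit.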

NCI-H358 (K-Ras G12C) = assay: CellTiter-Glo cell viability assay, H358; format: cell-based; conditions: Homo sapiens, NCI-H358, 120 h, NCI-H358, K-Ras G12C, 5-day treatment; read-out: H358 Cell Viability IC50
Summary of the method: as §1

KRAS G13C = KRAS G13C (Homo sapiens, UniProt P01116+P62937, G13C); assay: Ras-Raf disruption/FRET/MOA assay, KRAS G13C; format: biochemical; conditions: disruption of BRAF RBD binding, with Cyclophilin A; read-out: KRAS G13C FRET IC50
Sequence of KRAS G13C (P01116 1-169 isoform P01116-2 G13C limits assumed): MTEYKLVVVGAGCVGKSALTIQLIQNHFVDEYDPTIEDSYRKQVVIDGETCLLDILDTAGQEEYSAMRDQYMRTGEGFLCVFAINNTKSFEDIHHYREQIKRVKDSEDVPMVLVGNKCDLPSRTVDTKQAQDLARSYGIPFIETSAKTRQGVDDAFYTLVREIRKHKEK
Sequence of KRAS G13C (P62937 whole entry): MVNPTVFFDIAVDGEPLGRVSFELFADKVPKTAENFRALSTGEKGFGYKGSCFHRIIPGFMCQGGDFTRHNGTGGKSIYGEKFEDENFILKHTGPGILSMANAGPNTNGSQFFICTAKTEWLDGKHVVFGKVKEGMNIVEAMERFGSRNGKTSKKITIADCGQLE
Summary of the method: (§2)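 Buffer 25 mM HEPES pH 7.3, 100 mM NaCl, 5 mM MgCl2, 0.1% BSA, 0.002% Tween20; His6-KRAS-GMPPNP 12.5 nM, CypA 25 μM, GST-BRAF^RBD 50 nM; cpd 10-pt 3-fold from 30 μM; 3 h 25° C; then Eu/APC antibodies 1.5 h; TR-FRET ratio vs DMSO.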

KRAS G12C = KRAS G12C (Homo sapiens, UniProt P01116+P62937, G12C); assay: Ras-Raf disruption/FRET/MOA assay, KRAS G12C; format: biochemical; conditions: disruption of BRAF RBD binding, with Cyclophilin A; read-out: KRAS G12C FRET IC50
Sequence of KRAS G12C (P01116 1-169 isoform P01116-2 G12C limits assumed): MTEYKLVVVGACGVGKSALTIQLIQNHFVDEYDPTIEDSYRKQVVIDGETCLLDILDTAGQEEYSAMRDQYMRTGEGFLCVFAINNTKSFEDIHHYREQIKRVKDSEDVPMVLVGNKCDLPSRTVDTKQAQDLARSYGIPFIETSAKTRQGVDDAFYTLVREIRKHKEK
Sequence of KRAS G12C (P62937 whole entry): as the sequence (P62937 whole entry) above
Summary of the method: as §2

KRAS Q61H = KRAS Q61H (Homo sapiens, UniProt P01116+P62937, Q61H); assay: Ras-Raf disruption/FRET/MOA assay, KRAS Q61H; format: biochemical; conditions: KRAS Q61H; read-out: KRAS Q61H FRET data IC50
Sequence of KRAS Q61H (P01116 1-169 isoform P01116-2 Q61H limits assumed): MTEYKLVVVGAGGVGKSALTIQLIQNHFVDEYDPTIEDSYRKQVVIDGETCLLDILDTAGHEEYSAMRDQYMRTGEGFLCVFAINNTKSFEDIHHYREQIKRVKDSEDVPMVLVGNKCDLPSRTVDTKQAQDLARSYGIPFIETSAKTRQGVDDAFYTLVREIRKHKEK
Sequence of KRAS Q61H (P62937 whole entry, the tested form may be a part): as the sequence (P62937 whole entry) above
Description: (§3) Disruption of B-Raf Ras-Binding Domain (BRAF^RBD) Interaction with K-Ras by Compounds of the Invention (Also Called a FRET Assay or an MOA Assay)
(§4) Note—The following protocol describes a procedure for monitoring disruption of K-Ras G12C (GMP-PNP) binding to BRAF^RBD by a compound of the invention. This protocol may also be executed substituting other Ras proteins or nucleotides, such as K-Ras G12D and K-Ras G13D.
(§5) The purpose of this biochemical assay was to measure the ability of test compounds to facilitate ternary complex formation between a nucleotide-loaded K-Ras isoform and Cyclophilin A; the resulting ternary complex disrupts binding to a BRAF^RBD construct, inhibiting K-Ras signaling through a RAF effector.
(§6) In assay buffer containing 25 mM HEPES pH 7.3, 0.002% Tween20, 0.1% BSA, 100 mM NaCl and 5 mM MgCl2, tagless Cyclophilin A, His6-K-Ras-GMPPNP, and GST-BRAF^RBD were combined in a 384-well assay plate at final concentrations of 25 μM, 12.5 nM, and 50 nM, respectively. Compound was present in plate wells as a 10-point 3-fold dilution series starting at a final concentration of 30 μM. After incubation at 25° C. for 3 hours, a mixture of anti-His Eu-W1024 and anti-GST allophycocyanin was then added to assay sample wells at final concentrations of 10 nM and 50 nM, respectively, and the reaction incubated for an additional 1.5 hours. […] Compounds that facilitate disruption of a K-Ras:RAF complex were identified as those eliciting a decrease in the TR-FRET ratio relative to DMSO control wells.

KRAS G13D = KRAS G13D (Homo sapiens, UniProt P01116+P62937, G13D); assay: Ras-Raf disruption/FRET/MOA assay, KRAS G13D; format: biochemical; conditions: disruption of BRAF RBD binding, with Cyclophilin A; read-out: KRAS G13D FRET IC50
Sequence of KRAS G13D (P01116 1-169 isoform P01116-2 G13D limits assumed): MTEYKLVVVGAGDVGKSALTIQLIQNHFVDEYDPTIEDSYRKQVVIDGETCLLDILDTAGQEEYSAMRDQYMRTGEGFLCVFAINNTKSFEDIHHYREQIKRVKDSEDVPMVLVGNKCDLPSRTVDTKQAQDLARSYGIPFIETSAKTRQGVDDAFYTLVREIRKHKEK
Sequence of KRAS G13D (P62937 whole entry): as the sequence (P62937 whole entry) above
Summary of the method: as §2

KRAS G12D = KRAS G12D (Homo sapiens, UniProt P01116+P62937, G12D); assay: Ras-Raf disruption/FRET/MOA assay, KRAS G12D; format: biochemical; conditions: disruption of BRAF RBD binding, with Cyclophilin A; read-out: KRAS G12D FRET IC50
Sequence of KRAS G12D (P01116 1-169 isoform P01116-2 G12D limits assumed): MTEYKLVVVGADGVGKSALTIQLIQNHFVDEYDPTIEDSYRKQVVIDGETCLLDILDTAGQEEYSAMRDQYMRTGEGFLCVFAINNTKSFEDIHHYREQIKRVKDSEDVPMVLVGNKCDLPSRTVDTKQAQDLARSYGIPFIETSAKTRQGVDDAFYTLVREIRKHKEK
Sequence of KRAS G12D (P62937 whole entry): as the sequence (P62937 whole entry) above
Summary of the method: as §2

KRAS WT = KRAS WT (Homo sapiens, UniProt P01116+P62937); assay: Ras-Raf disruption/FRET/MOA assay, KRAS WT; format: biochemical; conditions: disruption of BRAF RBD binding, with Cyclophilin A; read-out: KRAS WT FRET IC50
Sequence of KRAS WT (P01116 1-169 isoform P01116-2 limits assumed): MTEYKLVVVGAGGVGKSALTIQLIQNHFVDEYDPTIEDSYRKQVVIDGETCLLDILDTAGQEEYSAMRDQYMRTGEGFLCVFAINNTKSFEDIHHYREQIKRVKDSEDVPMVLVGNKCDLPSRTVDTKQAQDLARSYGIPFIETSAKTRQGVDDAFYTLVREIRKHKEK
Sequence of KRAS WT (P62937 whole entry): as the sequence (P62937 whole entry) above
Summary of the method: as §2

KRAS G12V = KRAS G12V (Homo sapiens, UniProt P01116+P62937, G12V); assay: Ras-Raf disruption/FRET/MOA assay, KRAS G12V; format: biochemical; conditions: disruption of BRAF RBD binding, with Cyclophilin A; read-out: KRAS G12V FRET IC50
Sequence of KRAS G12V (P01116 1-169 isoform P01116-2 G12V limits assumed): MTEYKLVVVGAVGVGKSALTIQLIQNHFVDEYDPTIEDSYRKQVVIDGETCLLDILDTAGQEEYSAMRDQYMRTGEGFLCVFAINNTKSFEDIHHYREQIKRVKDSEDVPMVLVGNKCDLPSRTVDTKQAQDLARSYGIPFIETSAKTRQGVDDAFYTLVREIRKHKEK
Sequence of KRAS G12V (P62937 whole entry): as the sequence (P62937 whole entry) above
Summary of the method: as §2

NRAS Q61K = biological target: T1, NRAS Q61K (Homo sapiens, UniProt P01111+P62937, Q61K); assay: Ras-Raf disruption/FRET/MOA assay, NRAS Q61K; format: biochemical; conditions: NRAS Q61K; read-out: NRAS Q61K FRET data IC50
T1 construct: His6
T1 sequence (P01111 whole entry Q61K): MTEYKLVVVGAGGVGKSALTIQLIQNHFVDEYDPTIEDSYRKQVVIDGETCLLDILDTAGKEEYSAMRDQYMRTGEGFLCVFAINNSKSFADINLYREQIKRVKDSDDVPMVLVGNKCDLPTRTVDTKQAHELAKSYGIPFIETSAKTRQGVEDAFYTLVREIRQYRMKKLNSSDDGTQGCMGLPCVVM
T1 sequence (P62937 whole entry): as the sequence (P62937 whole entry) above
Description: as §3, §4, §5, §6

KRAS G12S = KRAS G12S (Homo sapiens, UniProt P01116+P62937, G12S); assay: Ras-Raf disruption/FRET/MOA assay, KRAS G12S; format: biochemical; conditions: disruption of BRAF RBD binding, with Cyclophilin A; read-out: KRAS G12S FRET IC50
Sequence of KRAS G12S (P01116 1-169 isoform P01116-2 G12S limits assumed): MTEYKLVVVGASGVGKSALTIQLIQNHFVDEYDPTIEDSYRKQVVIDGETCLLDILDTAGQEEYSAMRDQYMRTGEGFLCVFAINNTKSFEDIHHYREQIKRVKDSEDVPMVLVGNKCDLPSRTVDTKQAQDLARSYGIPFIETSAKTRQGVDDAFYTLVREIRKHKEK
Sequence of KRAS G12S (P62937 whole entry): as the sequence (P62937 whole entry) above
Summary of the method: as §2

NRAS Q61R = biological target: T2, NRAS Q61R (Homo sapiens, UniProt P01111+P62937, Q61R); assay: Ras-Raf disruption/FRET/MOA assay, NRAS Q61R; format: biochemical; conditions: NRAS Q61R; read-out: NRAS Q61R FRET data IC50
T2 construct: His6
T2 sequence (P01111 whole entry Q61R): as the sequence (P01111 whole entry Q61K) above, with K61R counted along it
T2 sequence (P62937 whole entry): as the sequence (P62937 whole entry) above
Description: as §3, §4, §5, §6

NRAS G12C = biological target: T3, NRAS G12C (Homo sapiens, UniProt P01111+P62937, G12C); assay: Ras-Raf disruption/FRET/MOA assay, NRAS G12C; format: biochemical; conditions: NRAS G12C; read-out: NRAS G12C FRET data IC50
T3 construct: His6
T3 sequence (P01111 whole entry G12C): as the sequence (P01111 whole entry Q61K) above, with G12C, K61Q counted along it
T3 sequence (P62937 whole entry): as the sequence (P62937 whole entry) above
Summary of the method: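 Disruption of Ras:RAF binding was read as a drop in TR-FRET ratio versus DMSO controls. The buffer was 25 mM HEPES pH 7.3, 0.002% Tween20, 0.1% BSA, 100 mM NaCl and 5 mM MgCl2. Compounds were tested as a 10-point 3-fold dilution series from 30 μM. Detection used 10 nM anti-His Eu-W1024 and 50 nM anti-GST allophycocyanin.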

NRAS WT = biological target: T4, NRAS WT (Homo sapiens, UniProt P01111+P62937); assay: Ras-Raf disruption/FRET/MOA assay, NRAS WT; format: biochemical; conditions: NRAS WT; read-out: NRAS WT FRET data IC50
T4 construct: His6
T4 sequence (P01111 whole entry): as the sequence (P01111 whole entry Q61K) above, with K61Q counted along it
T4 sequence (P62937 whole entry): as the sequence (P62937 whole entry) above
Description: as §3, §4, §5, §6

AsPC-1 (K-Ras G12D) [2] = assay: Potency assay: pERK in AsPC-1 cells; format: cell-based; conditions: Homo sapiens, ASPC1; AsPC-1 cells, K-Ras G12D; read-out: pERK EC50 (AsPC-1 KRAS G12D)

SMILES	IC50 (AsPC-1 (K-Ras G12D) [1]) [nM]	IC50 (NCI-H358 (K-Ras G12C)) [nM]	IC50 (KRAS G13C) [nM]	IC50 (KRAS G12C) [nM]	IC50 (KRAS Q61H) [nM]	IC50 (KRAS G13D) [nM]	IC50 (KRAS G12D) [nM]	IC50 (KRAS WT) [nM]	IC50 (KRAS G12V) [nM]	IC50 (NRAS Q61K) [nM]	IC50 (KRAS G12S) [nM]	IC50 (NRAS Q61R) [nM]	IC50 (NRAS G12C) [nM]	IC50 (NRAS WT) [nM]	EC50 (AsPC-1 (K-Ras G12D) [2]) [nM]
CCn1c(-c2cccnc2[C@H](C)OC)c2c3cc(ccc31)-c1csc(n1)C[C@H](NC(=O)[C@H](C(C)C)N(C)C(=O)N1C3CCC1CN(C(=O)[C@@H]1CN1)C3)C(=O)N1CCC[C@H](N1)C(=O)OCC(C)(C)C2 [Compound 304]	1000 to 10000	100 to 1000	1000 to 10000	100 to 1000	10 to 100	1000 to 10000	100 to 1000	100 to 1000	100 to 1000	100 to 1000	100 to 1000	100 to 1000	100 to 1000	100 to 1000	< 5000
CCn1c(-c2cccnc2[C@H](C)OC)c2c3cc(ccc31)-c1cc(O)cc(c1)C[C@H](NC(=O)[C@H](C(C)C)N1CCCC3(CN(C(=O)[C@H]4CN4)C3)C1=O)C(=O)N1CCC[C@H](N1)C(=O)OCC(C)(C)C2 [Compound 307]	100 to 1000	< 10	10 to 100	< 10	10 to 100	10 to 100	100 to 1000	10 to 100	10 to 100	100 to 1000	10 to 100	100 to 1000	< 10	10 to 100	< 5000
CCn1c(-c2cccnc2[C@H](C)OC)c2c3cc(ccc31)-c1csc(n1)C[C@H](NC(=O)[C@H](C1CCCC1)N1CC[C@]3(CCN(C(=O)[C@H]4CN4)C3)C1=O)C(=O)N1CCC[C@H](N1)C(=O)OCC(C)(C)C2 [Compound 319]	100 to 1000	< 10	100 to 1000	10 to 100	100 to 1000	1000 to 10000	1000 to 10000	1000 to 10000	1000 to 10000	100 to 1000	1000 to 10000	1000 to 10000	10 to 100	1000 to 10000	< 5000
CCn1c(-c2cccnc2[C@H](C)OC)c2c3cc(ccc31)-c1cc(CF)cc(c1)C[C@H](NC(=O)[C@H](C1CCCC1)N1CC[C@]3(CCN(C(=O)[C@@H]4N[C@@H]4C4CC4)C3)C1=O)C(=O)N1CCC[C@H](N1)C(=O)OCC(C)(C)C2 [Compound 321]	10 to 100	100 to 1000	100 to 1000	100 to 1000	100 to 1000	1000 to 10000	100 to 1000	100 to 1000	100 to 1000	1000 to 10000	100 to 1000	1000 to 10000	100 to 1000	100 to 1000	< 5000
CCn1c(-c2cc(N3CCN(C)CC3)cnc2[C@H](C)OC)c2c3cc(ccc31)-c1csc(n1)C[C@H](NC(=O)[C@H](C1CCCC1)N1CC[C@]3(CCN(C(=O)[C@@H]4N[C@@H]4C4CC4)C3)C1=O)C(=O)N1CCC[C@H](N1)C(=O)OCC(C)(C)C2 [Compound 324]	10 to 100	< 10	100 to 1000	100 to 1000	100 to 1000	1000 to 10000	100 to 1000	100 to 1000	100 to 1000	100 to 1000	100 to 1000	100 to 1000	100 to 1000	100 to 1000	< 5000
